Measured values: ChEMBL document CHEMBL1127961, “Antineoplastic agents 315. Isolation and structure of the marine sponge cancer cell growth inhibitor phakellistatin 5” (1994)
Values joined by “and” are separate entries in the source; they are usually repeats but may differ in a detail not shown here. Identical values can stand only once.

System: NCI
Experiment: Antineoplastic activity against NCI human leukemia cancer cell line
Type: functional

## CC[C@H](C)[C@@H]1NC(=O)C(C)NC(=O)[C@H](CCSC)NC(=O)C(C)NC(=O)[C@H](CC(N)=O)NC(=O)[C@H](Cc2ccccc2)NC(=O)C2CCCN2C1=O (single isomer, unassigned) [PHAKELLI STATIN 5]
  GI50: 3000 nM and 600 nM
